Assay results as given in ChEMBL document CHEMBL1148544, “Discovery, SAR, and X-ray structure of novel biaryl-based dipeptidyl peptidase IV inhibitors” (Bioorg Med Chem Lett, 2006).

Legend:
[1] = molecular target: Dipeptidyl peptidase 4 (Homo sapiens, UniProt P27487)
[2] = Permeability from basolateral to apical side of the Caco-2 cell membrane at 10 uM; assay type: ADME, cell-based; details: human
[3] = Permeability from apical to basolateral side of the Caco-2 cell membrane at 10 uM; assay type: ADME, cell-based; details: human
[4] = Stability in human liver microsomes at 1 uM; assay type: ADME, Microsome; details: read-out: Stability

Sequence of Dipeptidyl peptidase 4 (P27487 whole entry): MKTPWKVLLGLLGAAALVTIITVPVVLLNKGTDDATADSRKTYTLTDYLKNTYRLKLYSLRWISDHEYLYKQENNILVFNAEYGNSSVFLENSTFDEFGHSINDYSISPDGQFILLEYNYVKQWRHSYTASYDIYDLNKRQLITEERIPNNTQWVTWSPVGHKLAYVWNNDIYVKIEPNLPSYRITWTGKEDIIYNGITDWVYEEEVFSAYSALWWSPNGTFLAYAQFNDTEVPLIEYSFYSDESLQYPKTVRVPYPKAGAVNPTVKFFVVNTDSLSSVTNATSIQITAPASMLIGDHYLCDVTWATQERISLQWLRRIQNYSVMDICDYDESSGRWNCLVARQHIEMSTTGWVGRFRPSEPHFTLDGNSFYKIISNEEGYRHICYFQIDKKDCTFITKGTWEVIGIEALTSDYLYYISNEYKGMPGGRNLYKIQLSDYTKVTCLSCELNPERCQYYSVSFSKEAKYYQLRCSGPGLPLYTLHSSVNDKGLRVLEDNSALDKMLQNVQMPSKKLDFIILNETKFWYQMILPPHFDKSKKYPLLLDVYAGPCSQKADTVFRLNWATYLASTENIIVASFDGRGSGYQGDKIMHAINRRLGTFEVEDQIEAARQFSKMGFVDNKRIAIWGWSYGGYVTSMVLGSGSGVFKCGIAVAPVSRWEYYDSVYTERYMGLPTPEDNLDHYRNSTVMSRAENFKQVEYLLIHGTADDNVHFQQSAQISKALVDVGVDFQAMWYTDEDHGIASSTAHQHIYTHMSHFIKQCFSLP

CC1(C)OCCN1C(=O)[C@@H](N)Cc1ccc(-c2ccccc2)cc1
Ki [1]: > 12.8 µM

N#C[C@@H]1CCCN1C(=O)[C@@H](N)Cc1ccc(-c2ccc(F)cc2)cc1
Papp B→A at 10 µM [2]: 4.45 ×10⁻⁶ cm/s | Papp A→B at 10 µM [3]: 7.21 ×10⁻⁶ cm/s | remaining at 1 µM [4]: 6.7%

N#C[C@@H]1CCCN1C(=O)[C@@H](N)Cc1ccc(-c2ccccc2)cc1
Papp B→A at 10 µM [2]: 3.82 ×10⁻⁶ cm/s | Papp A→B at 10 µM [3]: 2.66 ×10⁻⁶ cm/s | remaining at 1 µM [4]: 52.3%

N[C@@H](Cc1ccc(-c2ccccc2)cc1)C(=O)N1CCC[C@H]1COCc1ccccc1
Ki [1]: > 12.8 µM

N#C[C@@H]1CCCN1C(=O)[C@@H](N)Cc1ccc(-c2ccc(F)cc2F)cc1
Papp B→A at 10 µM [2]: 4.93 ×10⁻⁶ cm/s | Papp A→B at 10 µM [3]: 4.93 ×10⁻⁶ cm/s | remaining at 1 µM [4]: 73.9%

N[C@@H](Cc1c[nH]c2ccccc12)C(=O)N1CCSC1
Ki [1]: > 12.8 µM

N[C@@H](Cc1ccc(-c2ccccc2)cc1)C(=O)N1CCSC1
Papp B→A at 10 µM [2]: 1.5 ×10⁻⁶ cm/s | Papp A→B at 10 µM [3]: 4.56 ×10⁻⁶ cm/s | remaining at 1 µM [4]: 62%

N[C@@H](Cc1ccc(-c2ccc(F)cc2)cc1)C(=O)N1CCSC1
Papp B→A at 10 µM [2]: 5.61 ×10⁻⁶ cm/s | Papp A→B at 10 µM [3]: 16.8 ×10⁻⁶ cm/s | remaining at 1 µM [4]: 78.5%

N[C@@H](Cc1ccc(-c2ccccc2)cc1)C(=O)N1CCC[C@H]1CO
Ki [1]: > 12.8 µM

N[C@@H](Cc1cccc2ccccc12)C(=O)N1CCSC1
Ki [1]: > 12.8 µM
